For 13 compounds, IC50 results are on record in patent US20260193271A1, “PAN-KRAS INHIBITOR COMPOUND” (ADLAI NORTYE BIOPHARMA CO., LTD., priority 2022, published 2026).

The assay deals with AsPC-1 (G12D). Kind of assay: In vitro cell proliferation inhibition test (CellTiter-Glo), AsPC-1. The assay is classed as cell-based. The note with it: AsPC-1 pancreas cell line, KRAS (p.G12D), 72 h co-incubation. An excerpt:
Test Example 1: In Vitro Cell Proliferation Inhibition Test
Due to the diversity of RAS mutations and in order to evaluate the activity of compounds in different RAS mutation cell lines, we selected KRAS^WT, KRAS^G12C, KRAS^G12D, KRAS^G12V and BRAF mutation cell lines (see the table below) for in vitro activity evaluation and screening of compounds.
Protocol: CellTiter-Glo® Cell Luminescent Viability Assay (Promega)
According to the doubling time of different cell lines, different numbers of cells (1000-5000 cells/well) were seeded in 96-well plates containing 180 μl of corresponding culture medium and cultured overnight in a cell culture incubator at 37° C. with 5% CO2. On the second day, the test compound was pre-diluted 3-fold with culture medium, with the highest concentration being 100 μM, for a total of 10 concentration gradients; then 20 μl of culture medium containing different concentrations of the compound was added to the cells in the 96-well plate to ensure that the final concentration of the compound was up to 10 μM, with 10 concentration gradients of 3-fold dilution. After the cells and compounds were co-incubated for 72 h, the 96-well plate was removed from the incubator and equilibrated at room temperature for 30 min. Then, 25 μl of CellTiter-Glo® Reagent was added to each well and mixed thoroughly. The mixture was incubated at room temperature for 10 min, and then 100 μl of the sample was transferred to a white 96-well plate (OptiPlate™-96, PerkinElmer). The […] signal value was read using a multi-function microplate reader (SpectraMax® i3x, Molecular devices). The signal values were then standardized, and the curve was fitted using a four-parameter regression equation to calculate the half maximal inhibitory concentration (IC50) of the compound on the cell line.
(In general: ATP-based viability assays read luminescence as a measure of living cells.)
For `CCn1c(-c2cc(-c3ccc(CN4CCOCC4)cc3)cnc2C(C)OC)c2c3cc(ccc31)-c1csc(n1)CC(NC(=O)C1C(C)C1C)C(=O)N1CCCC(N1)C(=O)OCC(C)(C)C2` [Compound 1′, (1r,2R,3S)-N-((6^3S,4S,Z)-1^1-ethyl-1^2-(2-((S)-1-methoxyethyl)-5-(4-(morpholinomethyl)phenyl)pyridin-3-yl)-10,10-dimethyl-5,7-dioxo-6^1,6^2,6^3,6^4,6^5,6^6-hexahydro-1^1H-8-oxa-2(4,2)-thiazola-1(5,3)-indola-6(1,3)-pyridazinacycloundecaphane-4-yl)-2,3-dimethylcyclopropane-1-carboxamide], the IC50 is 4770 nM. Then `CCn1c(-c2cc(-c3ccc4c(c3)CCN(C)C4)cnc2C(C)OC)c2c3cc(ccc31)-c1csc(n1)CC(NC(=O)C1C(C)C1C)C(=O)N1CCCC(N1)C(=O)OCC(C)(C)C2` [Compound 3′, (1r,2R,3S)-N-((6^3S,4S,Z)-1^1-ethyl-1^2-(2-((S)-1-methoxyethyl)-5-(2-methyl-1,2,3,4-tetrahydroisoquinolin-6-yl)pyridin-3-yl)-10,10-dimethyl-5,7-dioxo-6^1,6^2,6^3,6^4,6^5,6^6-hexahydro-1^1H-8-oxa-2(4,2)-thiazola-1(5,3)-indola-6(1,3)-pyridazinacycloundecaphane-4-yl)-2,3-dimethylcyclopropane-1-carboxamide], with 1230 nM; and `CCn1c(-c2cc(-c3cccc(CN(C)C)c3)cnc2[C@H](C)OC)c2c3cc(ccc31)-c1csc(n1)C[C@H](NC(=O)[C@H]1[C@H](C)[C@@H]1C)C(=O)N1CCC[C@H](N1)C(=O)OCC(C)(C)C2` [Compound 4′, (1r,2R,3S)-N-((6^3S,4S,Z)-1^2-(5-(3-((dimethylamino)methyl)phenyl)-2-((S)-1-methoxyethyl)pyridin-3-yl)-1^1-ethyl-10,10-dimethyl-5,7-dioxo-6^1,6^2,6^3,6^4,6^5,6^6-hexahydro-1^1H-8-oxa-2(4,2)-thiazola-1(5,3)-indola-6(1,3)-pyridazinacycloundecaphane-4-yl)-2,3-dimethylcyclopropane-1-carboxamide], with 646 nM. Then `CCn1c(-c2cc(-c3ccc(CN4CCOCC4)nc3)cnc2C(C)OC)c2c3cc(ccc31)-c1csc(n1)CC(NC(=O)C1CC1C)C(=O)N1CCCC(N1)C(=O)OCC(C)(C)C2` [Compound 5′, (1S,2S)-N-((6^3S,4S,Z)-1^1-ethyl-1^2-(6-((S)-1-methoxyethyl)-6′-(morpholinomethyl)-[3,3′-bipyridin]-5-yl)-10,10-dimethyl-5,7-dioxo-6^1,6^2,6^3,6^4,6^5,6^6-hexahydro-1^1H-8-oxa-2(4,2)-thiazola-1(5,3)-indola-6(1,3)-pyridazinacycloundecaphane-4-yl)-2-methylcyclopropane-1-carboxamide], with 99 nM. Next, `CCn1c(-c2cc(-c3ccc(CN4CCC(F)C4)cc3)cnc2C(C)OC)c2c3cc(ccc31)-c1csc(n1)CC(NC(=O)C1CC1C)C(=O)N1CCCC(N1)C(=O)OCC(C)(C)C2` [Compound 6′, (1S,2S)-N-((6^3S,4S,Z)-1^1-ethyl-1^2-(5-(4-(((R)-3-fluoropyrrolidin-1-yl)methyl)phenyl)-2-((S)-1-methoxyethyl)pyridin-3-yl)-10,10-dimethyl-5,7-dioxo-6^1,6^2,6^3,6^4,6^5,6^6-hexahydro-1^1H-8-oxa-2(4,2)-thiazola-1(5,3)-indola-6(1,3)-pyridazinacycloundecaphane-4-yl)-2-methylcyclopropane-1-carboxamide]: 1460 nM; `CCn1c(-c2cc(-c3ccc(CN4CCC(F)(F)CC4)cc3)cnc2C(C)OC)c2c3cc(ccc31)-c1csc(n1)CC(NC(=O)C1CC1C)C(=O)N1CCCC(N1)C(=O)OCC(C)(C)C2` [Compound 7′, (1S,2S)-N-((6^3S,4S,Z)-1^2-(5-(4-((4,4-difluoropiperidin-1-yl)methyl)phenyl)-2-((S)-1-methoxyethyl)pyridin-3-yl)-1^1-ethyl-10,10-dimethyl-5,7-dioxo-6^1,6^2,6^3,6^4,6^5,6^6-hexahydro-1^1H-8-oxa-2(4,2)-thiazola-1(5,3)-indola-6(1,3)-pyridazinacycloundecaphane-4-yl)-2-methylcyclopropane-1-carboxamide]: above 10000 nM; `CCn1c(-c2cc(-c3ccc(CN4CCN(C)CC4)cc3)cnc2[C@H](C)OC)c2c3cc(ccc31)-c1csc(n1)C[C@H](NC(=O)[C@H]1C[C@@H]1C)C(=O)N1CCC[C@H](N1)C(=O)OCC(C)(C)C2` [Compound 8′, (1S,2S)-N-((6^3S,4S,Z)-1^1-ethyl-1^2-(2-((S)-1-methoxyethyl)-5-(4-((4-methylpiperazin-1-yl)methyl)phenyl)pyridin-3-yl)-10,10-dimethyl-5,7-dioxo-6^1,6^2,6^3,6^4,6^5,6^6-hexahydro-1^1H-8-oxa-2(4,2)-thiazola-1(5,3)-indola-6(1,3)-pyridazinacycloundecaphane-4-yl)-2-methylcyclopropane-1-carboxamide]: 236 nM.

For `CCn1c(-c2cc(-c3cccc(CN4CCOCC4)c3)cnc2C(C)OC)c2c3cc(ccc31)-c1csc(n1)CC(NC(=O)C1CC1C)C(=O)N1CCCC(N1)C(=O)OCC(C)(C)C2` [Compound 9′, (1S,2S)-N-((6^3S,4S,Z)-1^1-ethyl-1^2-(2-((S)-1-methoxyethyl)-5-(3-(morpholinomethyl)phenyl)pyridin-3-yl)-10,10-dimethyl-5,7-dioxo-6^1,6^2,6^3,6^4,6^5,6^6-hexahydro-1^1H-8-oxa-2(4,2)-thiazola-1(5,3)-indola-6(1,3)-pyridazinacycloundecaphane-4-yl)-2-methylcyclopropane-1-carboxamide], the IC50 turned out to be 836 nM. Regarding `CCn1c(-c2cc(-c3ccc4c(c3)CN(C)CC4)cnc2C(C)OC)c2c3cc(ccc31)-c1csc(n1)CC(NC(=O)C1CC1C)C(=O)N1CCCC(N1)C(=O)OCC(C)(C)C2` [Compound 10′, (1S,2S)-N-((6^3S,4S,Z)-1^1-ethyl-1^2-(2-((S)-1-methoxyethyl)-5-(2-methyl-1,2,3,4-tetrahydroisoquinolin-7-yl)pyridin-3-yl)-10,10-dimethyl-5,7-dioxo-6^1,6^2,6^3,6^4,6^5,6^6-hexahydro-1^1H-8-oxa-2(4,2)-thiazola-1(5,3)-indola-6(1,3)-pyridazinacycloundecaphane-4-yl)-2-methylcyclopropane-1-carboxamide], the IC50 came out at 1800 nM. Next, `CCn1c(-c2cc(-c3nnc(C)n3C)cnc2C(C)OC)c2c3cc(ccc31)-c1csc(n1)CC(NC(=O)C1CC1C)C(=O)N1CCCC(N1)C(=O)OCC(C)(C)C2` [Compound 20′, (1S,2S)-N-((6^3S,4S,Z)-1^2-(5-(4,5-dimethyl-4H-1,2,4-triazol-3-yl)-2-((S)-1-methoxyethyl)pyridin-3-yl)-1^1-ethyl-10,10-dimethyl-5,7-dioxo-6^1,6^2,6^3,6^4,6^5,6^6-hexahydro-1^1H-8-oxa-2(4,2)-thiazola-1(5,3)-indola-6(1,3)-pyridazinacycloundecaphane-4-yl)-2-methylcyclopropane-1-carboxamide]: 87 nM; `CCn1c(-c2cc(-c3nc(C)no3)cnc2[C@H](C)OC)c2c3cc(ccc31)-c1csc(n1)C[C@H](NC(=O)[C@H]1C[C@@H]1C)C(=O)N1CCC[C@H](N1)C(=O)OCC(C)(C)C2` [Compound 21′, (1S,2S)-N-((6^3S,4S,Z)-1^1-ethyl-1^2-(2-((S)-1-methoxyethyl)-5-(3-methyl-1,2,4-oxadiazol-5-yl)pyridin-3-yl)-10,10-dimethyl-5,7-dioxo-6^1,6^2,6^3,6^4,6^5,6^6-hexahydro-1^1H-8-oxa-2(4,2)-thiazola-1(5,3)-indola-6(1,3)-pyridazinacycloundecaphane-4-yl)-2-methylcyclopropane-1-carboxamide]: 1770 nM. For `CCn1c(-c2cc(-c3cc(C4CN(C)CCO4)on3)cnc2C(C)OC)c2c3cc(ccc31)-c1csc(n1)CC(NC(=O)C1C(C)C1C)C(=O)N1CCCC(N1)C(=O)OCC(C)(C)C2` [Compound 26′, (1r,2R,3S)-N-((6^3S,4S,Z)-1^1-ethyl-1^2-(2-((S)-1-methoxyethyl)-5-(5-((R)-4-methylmorpholin-2-yl)isoxazol-3-yl)pyridin-3-yl)-10,10-dimethyl-5,7-dioxo-6^1,6^2,6^3,6^4,6^5,6^6-hexahydro-1^1H-8-oxa-2(4,2)-thiazola-1(5,3)-indola-6(1,3)-pyridazinacycloundecaphane-4-yl)-2,3-dimethylcyclopropane-1-carboxamide], the IC50 is 13 nM. For the compound `CCn1c(-c2cc(-c3cc(C4COCCN4C)on3)cnc2C(C)OC)c2c3cc(ccc31)-c1csc(n1)CC(NC(=O)C1C(C)C1C)C(=O)N1CCCC(N1)C(=O)OCC(C)(C)C2` [Compound 32′, (1r,2R,3S)-N-((6^3S,4S,Z)-1^1-ethyl-1^2-(2-((S)-1-methoxyethyl)-5-(5-((S)-4-methylmorpholin-3-yl)isoxazol-3-yl)pyridin-3-yl)-10,10-dimethyl-5,7-dioxo-6^1,6^2,6^3,6^4,6^5,6^6-hexahydro-1^1H-8-oxa-2(4,2)-thiazola-1(5,3)-indola-6(1,3)-pyridazinacycloundecaphane-4-yl)-2,3-dimethylcyclopropane-1-carboxamide], the IC50 is 33 nM.

The term IC50 denotes the concentration that gives 50% inhibition.
